Results: patent EP4692086A1, “ANTICOAGULATION REVERSAL AGENT, AND PREPARATION METHOD THEREFOR AND USE THEREOF” (Shaanxi Micot Pharmaceutical Technology Co., Ltd., priority 2023, dated 2024)

Experiments:
Type in all cases: in vivo, SD rats
enoxaparin-induced rats [1] = experiment: Hepatic laceration hemorrhage model, antagonizing enoxaparin; details: for Hepatic Laceration Bleeding Loss: bleeding loss over 30 min; for Inhibition Rate: hepatic laceration bleeding loss, vs Vehicle (enoxaparin)
heparin-induced rats [2] = experiment: Tail transection hemorrhage model, antagonizing heparin; details: bleeding loss over 15 min
Protocol: (§1) Tail transection hemorrhage model: […] The anaesthetized animals were placed on an electric heating blanket preheated to 37°C. Jugular vein was isolated and cannulated within 30 min. Normal saline or drug was injected via the jugular vein. 5 min after injection, a transection was made 5 mm away from the tip of the rat's tail. Bleeding loss (BL) over 15 min was recorded. Temperatures including room temperature and water bath temperature were strictly controlled throughout the experiment.

enoxaparin-induced rats [3] = experiment: Tail transection hemorrhage model, antagonizing enoxaparin; details: bleeding loss over 15 min
Protocol: as §1

heparin-induced rats [4] = experiment: Hepatic laceration hemorrhage model, antagonizing heparin; details: for Hepatic Laceration Bleeding Loss: bleeding loss over 30 min
warfarin-induced rats [5] = experiment: Hepatic laceration hemorrhage model, antagonizing warfarin; details: for Hepatic Laceration Bleeding Loss: jugular vein injection, bleeding loss over 30 min; for Inhibition Rate: hepatic laceration bleeding loss, vs Vehicle (warfarin)
Protocol: Hepatic laceration hemorrhage model: In all groups except for Control group and Compound 1 20 mg/kg+N.S. control group, SD rats were administered warfarin by oral gavage once daily for 3 consecutive days. 30 min after the final administration, the rats were injected with 10% chloral hydrate via intraperitoneal injection. The anaesthetized animals were placed on an electric heating blanket preheated to 37°C. Jugular vein was isolated and cannulated within 30 min. Aspirin was administered and 30 min later, test substances were injected via the jugular vein. 5 min after injection, the abdominal cavity was opened, and 3 standard incisions, each with a length of 1 cm and a depth of 2 mm, were made on the liver. Blood flowing from the liver was absorbed with pre-weighed dry cotton, and bleeding loss (BL) over 30 min was recorded.

warfarin-induced rats [6] = experiment: Tail transection hemorrhage model, antagonizing warfarin (bleeding loss and WBCT); details: for Tail Transection Bleeding Loss: jugular vein injection, bleeding loss over 15 min
Protocol: Tail transection hemorrhage model: In all groups except for Control group and Compound 1 20 mg/kg+N.S. control group, SD rats were administered warfarin by oral gavage once daily for 3 consecutive days. 30 min after the final administration, the rats were injected with 10% chloral hydrate via intraperitoneal injection. The anaesthetized animals were placed on an electric heating blanket preheated to 37°C. Jugular vein was isolated and cannulated within 30 min. Normal saline or drug was injected via the jugular vein. 5 min after injection, a transection was made 5 mm away from the tip of the rat's tail. Bleeding loss (BL) over 15 min was recorded. At the end of the experiment, blood was collected from the abdominal cavity and WBCT was measured. Temperatures including room temperature and water bath temperature were strictly controlled throughout the experiment.

[7] = 5 mg/kg+enoxaparin, listed as compound 1
[8] = 10 mg/kg+heparin, listed as compound 1
[9] = 20 mg/kg+warfarin, blood collected at the end of the experiment
[10] = Rattus norvegicus, read-out: Inhibition Rate

Compound: N=C(N)NCCCC(N)C(=O)NCCCn1c(=O)c2c(ncn2CCCNC(=O)C(N)CCCNC(=N)N)n(CCCNC(=O)C(N)CCCNC(=N)N)c1=O (stereo not drawn) [Compound 1]
- Hepatic Laceration Bleeding Loss (enoxaparin-induced rats [1]; 0.2 mg/kg+enoxaparin): 0.5253 ± 0.2034 g
- Hepatic Laceration Bleeding Loss (enoxaparin-induced rats [1]; 1 mg/kg+enoxaparin): 0.1674 ± 0.0734 g
- Hepatic Laceration Bleeding Loss (enoxaparin-induced rats [1]; 1 mg/kg+enoxaparin, listed as compound 1): significantly reduced
- Hepatic Laceration Bleeding Loss (enoxaparin-induced rats [1]; 5 mg/kg+enoxaparin): 0.0490 ± 0.0184 g
- Hepatic Laceration Bleeding Loss (enoxaparin-induced rats [1]; [7]): significantly reduced
- Inhibition Rate (enoxaparin-induced rats [1]; 0.2 mg/kg+enoxaparin): -17.1%
- Inhibition Rate (enoxaparin-induced rats [1]; 1 mg/kg+enoxaparin): 62.7%
- Inhibition Rate (enoxaparin-induced rats [1]; 5 mg/kg+enoxaparin): 89.1%
- Tail Transection Bleeding Loss (heparin-induced rats [2]; 5 mg/kg+heparin): 38.3625 ± 12.6991 mg
- Tail Transection Bleeding Loss (heparin-induced rats [2]; 10 mg/kg+heparin): 19.9375 ± 22.3215 mg
- Tail Transection Bleeding Loss (heparin-induced rats [2]; [8]): significantly reduced
- Tail Transection Bleeding Loss (heparin-induced rats [2]; 20 mg/kg+heparin): 12.1125 ± 6.6714 mg
- Tail Transection Bleeding Loss (enoxaparin-induced rats [3]; 0.2 mg/kg+enoxaparin): 0.0903 ± 0.0426 g
- Tail Transection Bleeding Loss (enoxaparin-induced rats [3]; 1 mg/kg+enoxaparin): 0.0302 ± 0.0147 g
- Tail Transection Bleeding Loss (enoxaparin-induced rats [3]; 5 mg/kg+enoxaparin): 0.0158 ± 0.0083 g
- Tail Transection Bleeding Loss (enoxaparin-induced rats [3]; [7]): superior to the 20 mg/kg PER977 group
- Hepatic Laceration Bleeding Loss (heparin-induced rats [4]; 5 mg/kg+heparin): 0.3217 ± 0.0919 g
- inhibition rate for hepatic laceration bleeding loss (heparin-induced rats [4]; 10 mg/kg compound 1 (so in the source)+heparin, compared to the Vehicle group): 88.9%
- Hepatic Laceration Bleeding Loss (heparin-induced rats [4]; 10 mg/kg+heparin): 0.1794+0.0966 g
- Hepatic Laceration Bleeding Loss (heparin-induced rats [4]; [8]): significantly reduced
- Hepatic Laceration Bleeding Loss (heparin-induced rats [4]; 20 mg/kg+heparin): 0.0560+0.0408 g
- Hepatic Laceration Bleeding Loss (warfarin-induced rats [5]; 5 mg/kg+warfarin): 0.3029 ± 0.1189 g
- Hepatic Laceration Bleeding Loss (warfarin-induced rats [5]; 10 mg/kg+warfarin): 0.2379 ± 0.1613 g
- inhibited hepatic laceration bleeding loss (warfarin-induced rats [5]; 20 mg/kg+warfarin, compared to the Vehicle group): 72.1%
- Hepatic Laceration Bleeding Loss (warfarin-induced rats [5]; 20 mg/kg+warfarin): 0.0784 ± 0.0346 g
- Inhibition Rate (warfarin-induced rats [5]; 5 mg/kg+warfarin): -7.9
- Inhibition Rate (warfarin-induced rats [5]; 10 mg/kg+warfarin): 15.3
- Inhibition Rate (warfarin-induced rats [5]; 20 mg/kg+warfarin): 72.1
- WBCT (warfarin-induced rats [6]; 20 mg/kg+N.S. (no warfarin), compared to the Control group): no significant changes
- WBCT (warfarin-induced rats [6]; [9]): 490 ± 99 s
- WBCT (warfarin-induced rats [6]; 20 mg/kg+warfarin, blood collected at the end of the experiment, listed as compound 1): significantly shortened
- Tail Transection Bleeding Loss (warfarin-induced rats [6]; 20 mg/kg+warfarin): 0.0143 ± 0.0108 g
- Tail Transection Bleeding Loss (warfarin-induced rats [6]; 20 mg/kg+warfarin, listed as compound 1): significantly reduced

Compound: N=C(N)NCCC[C@H](N)C(=O)NCCCN1CCN(CCCNC(=O)[C@@H](N)CCCNC(=N)N)CC1 [PER977, diarginine piperazine, reference compound]
- Hepatic Laceration Bleeding Loss (enoxaparin-induced rats [1]; 20 mg/kg+enoxaparin): 0.0420 ± 0.0244 g
- inhibition at 20 mg/kg (enoxaparin-induced rats [1]; [10]): 90.6%
- Tail Transection Bleeding Loss (heparin-induced rats [2]; 20 mg/kg+heparin): 17.9000 ± 11.6004 mg
- Tail Transection Bleeding Loss (enoxaparin-induced rats [3]; 20 mg/kg+enoxaparin): 0.0228 ± 0.0155 g
- Hepatic Laceration Bleeding Loss (heparin-induced rats [4]; 20 mg/kg+heparin): 0.0511 ± 0.0444 g
- Hepatic Laceration Bleeding Loss (warfarin-induced rats [5]; 20 mg/kg+warfarin): 0.0874 ± 0.0292 g
- inhibition at 20 mg/kg (warfarin-induced rats [5]; [10]): 68.9%
- WBCT (warfarin-induced rats [6]; [9]): 471 ± 101 s
- Tail Transection Bleeding Loss (warfarin-induced rats [6]; 20 mg/kg+warfarin): 0.0276 ± 0.0123 g
